Results on 1 molecule are retold here after US5340829A, “Immunoregulatory agents” (priority 1992, dated 1994).

Each structure is given as a SMILES string. “Also recorded” adds a separate entry of the source.

The test system of data set [1] is thymocytes from normal mice. The data set is described as follows: Con A stimulated 3H-thymidine incorporation, thymocytes from normal mice in vitro (Experiment 18). The data set is classed as cell-based. The following applies: concentrations as high as 10^-5 M/L. For orientation: Uptake of a labelled nucleoside into DNA is a usual measure of proliferation.
In data set [2] the test system is delayed-type hypersensitivity (DTH). Description: DTH ear swelling, comparison of sorbinil, tolrestat, WF-3681 and NSAIDs (Experiment 23, TABLE 5). The data set is classed as in vivo, mice. As to the method:
Delayed type hypersensitivity, which involves the participation of T lymphocytes and macrophages, can be studied in vivo by exposing (or priming) a mammal to a novel antigen and then reexposing (or challenging) the primed animal to the same antigen four to seven days later. The classic DTH response includes symptoms of inflammatory response, induration and erythema, which peak at 24 to 48 hours after challenging and then decline slowly.
Eight-week old female C57BL/6J mice (Jackson Labs) were divided into primed and unprimed groups. The five mice in the primed group were primed to 2,4-dinitrofluorobenzene (DNFB; Sigma Chemical Co., Grade 1, approx. 98%, Lot 129C-0065, No. d-6879) by painting their shaved ventral skins with 0.1 ml of 0.5% DNFB in ethanol:acetone (3:1). The five mice in the unprimed group were shaved and topically painted on their ventral skins with the ethanol:acetone (3:1) vehicle alone. The mice in both groups were challenged with DNFB four days later. A suitable patch of skin, the ear, was chosen for challenging. One ear was designated for challenging and the other to serve as a control. The thickness of each ear across the pinna was measured using micrometer calipers. The first measurements were taken four days after priming and are plotted as day 0 in FIG. 13. Next, each mouse was subjected to the following challenge regimen: one ear was challenged with one drop of 0.35% DNFB in olive oil, and the other (unchallenged control) ear was exposed to olive oil alone. The ear thicknesses (ET) of the challenged ear and the unchallenged ear were measured daily, and the swelling responses are plotted in FIG. 13 as: [formula]
Three groups of eight-week old female C57BL/6J mice were primed to DNFB as previously described. […] Six hours later the first sets of ear measurements were taken, and one ear of each mouse was challenged.
The Table has 4 columns, listing (left to right) each drug tested in column 1, drug concentrations in column 2, relative swelling in column 3, and effectiveness in column 4.

Data set [3] relates to ear swelling produced by topical application of arachidonic acid. Description: Ear swelling produced by topical arachidonic acid (Experiment 22). The data set is classed as in vivo, mice.
Data set [4] relates to Human monocytes. Description: Monocyte adherence in vitro (Experiment 16). As to conditions: concentrations as high as 10^-6 M/L. The data set is classed as cell-based. The source says: Human monocytes were isolated and tested for adherence in vitro in the presence and absence of sorbinil.
For data set [5], the system named is anti-PHI.X 174 bacteriophage antibodies. Description: Phage inhibition assay of serum antibody after immunization with bacteriophage PHI.X 174 (Experiment 7). The data set is classed as in vivo, mice. As to conditions: sorbinil daily for five days. From the text:
Antibodies generated against the bacteriophage were quantitated by a phage inhibition assay, which is based on the observation that antibodies specific for the bacteriophage will inhibit the ability of the bacteriophage to lyse bacteria. Ochs, H. D., et al., Disorders of the B-cell system, in Immunologic Disorders in Infants and Children, E. R. Stiehm, et al., eds., W. B. Sanders, Co. Philadelphia, p. 239, 1980. The data was expressed as Kv values derived according to the following formula: Rate of phage inactivation, Kv D/T×1n Po/P, where D=reciprocal of antibody dilution, T=60 minutes, Po=initial number of PFU, and P=number of plaques at 60 minutes.
Beginning with one week after this primary immunization mice were bled weekly, and serum samples from individual mice were tested for the ability to inhibit bacteriophage lysis of bacteria.

Data set [6] has as its system spleen cells from irradiated C57B6 mice with thymocytes from Balb C mice. The data set is described as follows: Mixed lymphocyte response (Experiment 19). The data set is classed as cell-based. As to conditions: concentrations as high as 10^-5 M/L.
Data set [7] deals with white cells. The following applies: in vivo.

As to `O=C1NC(=O)[C@@]2(CCOc3ccc(F)cc32)N1` [Sorbinil, 4(S)-2,3-dihydro-6-fluorospiro-(4H-1-benzopyran-4,4'-imidazolidine)-2',5'-dione], the “3H-thymidine incorporation stimulated by Con A” value in data set [1] was “no effect”. The “effectiveness (1 - R) (100%)” value in data set [2] (6 μM, single dose after challenge) is on record as 39%; in data set [2] (6 μM, single dose before challenge), 32%; in data set [2] (concentration 6 μM), 34%; in data set [2] (concentration 6 μM, listed as sorbinil) it was “about 30%”; in data set [2] (concentration 10 μM) it was 70%. Also, the “Effect on DTH as measured by ear swelling (in words)” value in data set [2] (mouse, in vivo) is “strong and substantially identical inhibitory effect; also recorded: effective, as a single dose, when administered either before or after the antigenic challenge”. For the same molecule, the “Ear swelling produced by topical arachidonic acid” value in data set [3] (oral administration) and in data set [3] (topical administration) was “no effect” each time. In addition, the Adherence of monocytes entry in data set [4] is reported as “no effect”. Also, the “Kv, rate of phage inactivation (serum titer of anti-PHI.X 174 antibodies)” value in data set [5] (one week after priming) was 5.0±2.4; in data set [5] (two weeks after primary immunization) it was 18.4±11.4. The Mixed lymphocyte response entry in data set [6] is “no effect”. Also, the “White cell population (differential blood count)” value in data set [7] was “did not affect the population of white cells”.
